# Reference: patent US20090263472A1, “ENDOTHELIN RECEPTOR ANTAGONIST DERIVATIVES” (NICOX S.A., priority 2006, published 2009)
# Tests used:
# [1] = tested on: isolated rabbit thoracic aorta preparations; assay: Studies on vascular tone: vasorelaxation of noradrenaline-precontracted aortic rings; assay type: cell-based; conditions: for relaxation of precontracted aortic rings (in words): cumulative concentration-response curve, noradrenaline 1 μM precontraction
# [2] = tested on: spontaneously hypertensive rats (SHR); assay: Antihypertensive activity in vivo, tail-cuff systolic blood pressure; set-up: species or system rat; conditions: for Δ SBP (Systolic Blood Pressure) 1 hr / Δ SBP (Systolic Blood Pressure) 3 hrs / Δ SBP (Systolic Blood Pressure) 6 hrs: p.o., delta vs own baseline, bosentan 100 mpk, compound of EX. 1 equimolar dose; for Δ SBP (Systolic Blood Pressure) 1 hr: 1 hr after treatment; for Δ SBP (Systolic Blood Pressure) 3 hrs: 3 hrs after treatment; for Δ SBP (Systolic Blood Pressure) 6 hrs: 6 hrs after treatment
# Experimental: Ten days prior to the beginning of the experiment, spontaneously hypertensive rats (SHR) are trained daily for the measurement of blood pressure by the tail-cuff method ([…] et Al.; Am. J. Physiol. Heart Circ. Physiol 286: […]-[…], 2004) using model BP-2000 Blood Pressure Analysis System from U.Basile (Comerio, VA Italy). Each animal is placed in individuals cages into a warming cupboard (37° C.) for 15 minutes. […] Average of blood pressure values from individual rats are evaluated from 3/5 different consecutive measurements. […] The data are processed both as the absolute value or as a delta between the absolute value and its own baseline.
SMILES,"EC50 (μM) ± sem ([1]; concentration producing 50% of maximum relaxation, aortic rings contracted with noradrenaline 1 μM, functional endothelium)",relaxation of precontracted aortic rings (in words) [1],Δ SBP (Systolic Blood Pressure) 1 hr [2],Δ SBP (Systolic Blood Pressure) 3 hrs [2],Δ SBP (Systolic Blood Pressure) 6 hrs [2],"EC50 ([1]; concentration producing 50% of maximum relaxation, aortic rings contracted with noradrenaline 1 μM, functional endothelium, read-out: EC50 (μM) ± sem)",reduction in blood pressure (in words) ([2]; oral administration)
"COc1ccccc1Oc1c(NS(=O)(=O)c2ccc(C(C)(C)C)cc2)nc(-c2ncccn2)nc1OCCO [Bosentan, reference compound]",no effect,did not produce relaxation at any of the concentration tested,0 mmHg,6 mmHg,−1 mmHg,–,–
COc1ccccc1Oc1c(NS(=O)(=O)c2ccc(C(C)(C)C)cc2)nc(-c2ncccn2)nc1OCCOC(=O)CCCO[N+](=O)[O-] [Compound of EX. 1],–,able to induce relaxation in a concentration-dependent manner,−8 mmHg,−18 mmHg,−6 mmHg,33.9 ± 2.5 µM,able to induce a clear reduction in blood pressure
